Measured values taken from patent US10160780B2, “Compound extracted from husk and fruit stem of Xanthoceras sobifolia and its extracting method and use thereof” (priority 2004, dated 2018).
≈ marks a conversion by molar mass, not a printed value. Read-outs that look alike come from different tables or passages of the source.

Key:
[1] = system: mice; test: Y maze test of learning and memory ability of mice; format: in vivo; details: fed 9 mg/kg, Y maze after 40 minutes, incorrect alternations before 10 continuous correct choices
Method: 20 female and male mice weighted 18˜23 g were selected and divided evenly into two groups. The treatment group was fed with total dose of Xanthoceraside at the ratio of 9 mg/kg mice weight, and the control group was fed with the same amount of normal saline. After 40 minutes, they were put into Y maze respectively for performance observation. The number of incorrect alternations for a mice were recorded before it made correct choices continuously for 10 times. If errors more than 30, cutting the value to 30.

[2] = system: mice; test: Y maze test, memory retrieval impairment of mice induced by scopolamine; format: in vivo; details: scopolamine 2.0 mg/kg, then injection 6 mg/kg, Y maze after 20 minutes
Method: Mice were trained based on the stochastic three arms Y maze test, to screen those who had less than 30 errors of alternation before they continuously made correct choices for 10 times. After relaxed for 24 hours, the selected ones were randomized into two groups and for all of them scopolamine was injected into celiac at the ratio of 2.0 mg/kg mice weight to cause their learning and memory impairment. After 15 minutes, the mice in the treatment group were given an injection of total dose of Xanthoceraside at ratio of 6 mg/kg mice weight, while those in the control group were given an injection of the same amount of normal saline. After 20 minutes, they were arranged respectively into Y maze and the number of incorrect alternations before they made correct choices continuously for 10 times.

[3] = system: mice; test: regular static hypoxia tolerance in an isolated environment (death time); format: in vivo; details: oral 2 mg twice a day for 6 days
Method: The above obtained Xanthoceraside was for the test of regular static hypoxia tolerance in an isolated environment to observe the effect of Xanthoceraside on death time of animals.
The test consisted of two sections. Each section was divided into two groups: control and treatment. There were three measurements to calculate death time of the mice. Those in treatment group took oral dosing of 2 mg of Xanthoceraside twice a day for 6 days. The three parameters are: • The average death time of whole group (xt); • The super average death time (xp): based on the average death time of the control group (xc), calculate the death time (xp), which is greater than the control group (xc), and calculate the mean. • The delayed death time (xp-xc): the super average death time (xp) minus the control group (xc) and calculated the mean.

[4] = system: HL-60 human leukemia; test: anti-tumor activity in vitro, MTT; format: cell-based
From the text: (§1) Take Xanthoceraside derived from the example 3 to do a test on tumor cell in vitro.

[5] = system: BGC-823 human gastric cancer; test: anti-tumor activity in vitro, SRB; format: cell-based; details: BGC-823, SRB
From the text: as §1

[6] = system: Bel-7402 human liver cancer; test: anti-tumor activity in vitro, SRB; format: cell-based; details: Bel-7402, SRB
From the text: as §1

[7] = system: MDA-MB-435 human breast cancer; test: anti-tumor activity in vitro, SRB; format: cell-based; details: MDA-MB-435, SRB
From the text: as §1

[8] = system: PC-3MIE8 human prostate cancer; test: anti-tumor activity in vitro, SRB; format: cell-based; details: PC-3MIE8, SRB
From the text: as §1

[9] = system: Hela cervical cancer; test: anti-tumor activity in vitro, SRB; format: cell-based, human
From the text: as §1

Q: Which “Error frequency (X ± SD)” value [1] does the source give for `C/C=C(/C)C(=O)O[C@H]1[C@H](OC(=O)/C(C)=C\C)C2(CO)C(CC1(C)C)C1=CCC3[C@@]4(C)CC[C@H](OC5OC(C(=O)O)C(O)C(OC6OC(CO)C(O)C6O)C5OC5OC(CO)C(O)C(O)C5O)C(C)(C)C4CC[C@@]3(C)[C@]1(C)[C@@H](O)[C@H]2O` (stereo partly drawn) [Xanthoceraside, 3-O-(α-L-arabinofuranosyl(1→3)-β-D-galactopyranosyl(1→2))-β-D-glucuronopyranosyl-21,22-diangeloyl-R1-barrigenol] here?
A: 6.9 ± 2.3

Q: And the “Error frequency (X ± SD)” value [2]?
A: 4.0 ± 1.5

Q: What about the “xp − xc, delayed death time” value ([3]; First section) of the same compound?
A: 14.59 ± 14.83(17) min

Q: And the “xp, super average death time” value ([3]; First section)?
A: 56.51 ± 14.59(17) min

Q: And the “xt, average death time of whole group” value ([3]; First section)?
A: 41.84 ± 15.35(30) min

Q: And the “xp − xc, delayed death time” value ([3]; Second section)?
A: 8.40 ± 4.94(33) min

Q: And the “xp, super average death time” value ([3]; Second section)?
A: 33.40 ± 4.94(33) min

Q: What about the “xt, average death time of whole group” value ([3]; Second section) of the same compound?
A: 31.55 ± 6.68(41) min

Q: And the IC50 ([4]; HL-60, MTT)?
A: 41.29 µg/mL (≈ 36.2 µM)

Q: And the “Inhibition ratio (%)” value ([4]; HL-60, MTT, 0.5 μg/ml)?
A: 9.34%

Q: What about the “Inhibition ratio (%)” value ([4]; HL-60, MTT, 5.0 μg/ml) of the same compound?
A: 17.68%

Q: What about the “Inhibition ratio (%)” value ([4]; HL-60, MTT, 50.0 μg/ml) of the same compound?
A: 56.90%

Q: And the IC50 ([4]; Homo sapiens, HL-60, HL-60, MTT, read-out: IC50)?
A: 41.9 µg/mL (≈ 36.7 µM)

Q: And the “Inhibition ratio (%)” value ([5]; 0.5 μg/ml)?
A: −11.71%

Q: What about the “Inhibition ratio (%)” value ([5]; 5.0 μg/ml) of the same compound?
A: −5.92%

Q: And the “Inhibition ratio (%)” value ([5]; 50.0 μg/ml)?
A: 92.45%

Q: What about the IC50 ([5]; Homo sapiens) of the same compound?
A: 40.2 µg/mL (≈ 35.3 µM)

Q: And the “Inhibition ratio (%)” value ([6]; 0.5 μg/ml)?
A: −9.78%

Q: What about the “Inhibition ratio (%)” value ([6]; 5.0 μg/ml) of the same compound?
A: −1.24%

Q: What about the “Inhibition ratio (%)” value ([6]; 50.0 μg/ml) of the same compound?
A: 92.96%

Q: And the IC50 ([6]; Homo sapiens)?
A: 39.3 µg/mL (≈ 34.5 µM)

Q: And the IC50 ([7]; Homo sapiens)?
A: 18.6 µg/mL (≈ 16.3 µM)

Q: And the “Inhibition ratio (%)” value ([7]; 0.5 μg/ml)?
A: −4.50%

Q: And the “Inhibition ratio (%)” value ([7]; 5.0 μg/ml)?
A: 2.92%

Q: And the “Inhibition ratio (%)” value ([7]; 50.0 μg/ml)?
A: 93.14%

Q: And the IC50 ([8]; Homo sapiens)?
A: 41 µg/mL (≈ 35.9 µM)

Q: What about the “Inhibition ratio (%)” value ([8]; 0.5 μg/ml) of the same compound?
A: −13.90%

Q: What about the “Inhibition ratio (%)” value ([8]; 5.0 μg/ml) of the same compound?
A: −7.63%

Q: And the “Inhibition ratio (%)” value ([8]; 50.0 μg/ml)?
A: 92.03%

Q: What about the “Inhibition ratio (%)” value ([9]; 0.5 μg/ml) of the same compound?
A: −12.72%

Q: What about the “Inhibition ratio (%)” value ([9]; 5.0 μg/ml) of the same compound?
A: −4.05%

Q: And the “Inhibition ratio (%)” value ([9]; 50.0 μg/ml)?
A: 95.49%

Q: What about the IC50 ([9]; Homo sapiens) of the same compound?
A: 34.2 µg/mL (≈ 30 µM)
